Measured values from US8598365B2, “Herbicides” (Syngenta Limited, priority 2007, dated 2013).

Legend:
Assay type in all cases: in vivo
[1] = test system: Amaranthus retoflexus (AMARE); experiment: Example B pre-emergence herbicidal activity; conditions: Amaranthus retroflexus, 312 h, rate 250 g/ha, evaluated after 13 days, read-out: Pre-Emergence Activity AMARE (100=total damage to plant; 0=no damage to plant)
Procedure, shortened: (§1)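 Glasshouse pot test, 24/16 °C, 14 h light, 65% RH, watered twice daily. Spray timing: day 1 pre-em., day 8 post-em.; vehicle acetone/water 50:50 + 0.5% Tween 20. Readout 13 d, 0–100% damage.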

Avena fatua (AVEFA) [2] = experiment: Example B pre-emergence herbicidal activity; conditions: 312 h, rate 250 g/ha, evaluated after 13 days, read-out: Pre-Emergence Activity AVEFA (100=total damage to plant; 0=no damage to plant)
Procedure, shortened: as §1

Setaria faberi (SETFA) [3] = experiment: Example B pre-emergence herbicidal activity; conditions: 312 h, rate 250 g/ha, evaluated after 13 days, read-out: Pre-Emergence Activity SETFA (100=total damage to plant; 0=no damage to plant)
Procedure, shortened: as §1

[4] = test system: Alopecurus myosuroides (ALOMY); experiment: Example B pre-emergence herbicidal activity; conditions: 312 h, rate 250 g/ha, evaluated after 13 days, read-out: Pre-Emergence Activity ALOMY (100=total damage to plant; 0=no damage to plant)
Procedure, shortened: as §1

[5] = test system: Echinochloa crus-galli (ECHCG); experiment: Example B pre-emergence herbicidal activity; conditions: 312 h, rate 250 g/ha, evaluated after 13 days, read-out: Pre-Emergence Activity ECHCG (100=total damage to plant; 0=no damage to plant)
Procedure, shortened: as §1

[6] = test system: Amaranthus retoflexus (AMARE); experiment: Example B post-emergence herbicidal activity; conditions: Amaranthus retroflexus, 312 h, rate 250 g/ha, evaluated after 13 days, read-out: Post-emergence activity AMARE (100=total damage to plant; 0=no damage to plant)
Procedure, shortened: as §1

Avena fatua (AVEFA) [7] = experiment: Example B post-emergence herbicidal activity; conditions: 312 h, rate 250 g/ha, evaluated after 13 days, read-out: Post-emergence activity AVEFA (100=total damage to plant; 0=no damage to plant)
Procedure, shortened: as §1

Setaria faberi (SETFA) [8] = experiment: Example B post-emergence herbicidal activity; conditions: 312 h, rate 250 g/ha, evaluated after 13 days, read-out: Post-emergence activity SETFA (100=total damage to plant; 0=no damage to plant)
Procedure, shortened: as §1

[9] = test system: Alopecurus myosuroides (ALOMY); experiment: Example B post-emergence herbicidal activity; conditions: 312 h, rate 250 g/ha, evaluated after 13 days, read-out: Post-emergence activity ALOMY (100=total damage to plant; 0=no damage to plant)
Procedure, shortened: as §1

[10] = test system: Echinochloa crus-galli (ECHCG); experiment: Example B post-emergence herbicidal activity; conditions: 312 h, rate 250 g/ha, evaluated after 13 days, read-out: Post-emergence activity ECHCG (100=total damage to plant; 0=no damage to plant)
Procedure, shortened: as §1

Row | SMILES | pest or weed control at 250 g/ha [1] [%] | pest or weed control at 250 g/ha (Avena fatua (AVEFA) [2]) [%] | pest or weed control at 250 g/ha (Setaria faberi (SETFA) [3]) [%] | pest or weed control at 250 g/ha [4] [%] | pest or weed control at 250 g/ha [5] [%] | pest or weed control at 250 g/ha [6] [%] | pest or weed control at 250 g/ha (Avena fatua (AVEFA) [7]) [%] | pest or weed control at 250 g/ha (Setaria faberi (SETFA) [8]) [%] | pest or weed control at 250 g/ha [9] [%] | pest or weed control at 250 g/ha [10] [%]
1 | Cc1ccc(-c2nc(C3C(=O)[C@@H]4CC[C@@H](C4)C3=O)c(C)s2)cc1 (some centres unmarked) [Compound T11] | 0 | 0 | 0 | 40 | 70 | 0 | 40 | 80 | 90 | 100
2 | Cc1sc(-c2ccc(OC(F)(F)F)cc2)nc1C1C(=O)[C@@H]2CC[C@@H](C2)C1=O (some centres unmarked) [Compound T5, 3-[5-methyl-2-(4-trifluoromethoxyphenyl)thiazol-4-yl]bicyclo[3.2.1]octane-2,4-dione] | 0 | 0 | 90 | 50 | 80 | 0 | 0 | 100 | 70 | 100
3 | CCc1sc(-c2cc(F)c(OC)cc2F)nc1C1C(=O)[C@@H]2CC[C@@H](C2)C1=O (some centres unmarked) [Compound T102] | 0 | 30 | 50 | 50 | 70 | 0 | 100 | 100 | 100 | 100
4 | COc1ccc(-c2nc(C3C(=O)[C@@H]4CC[C@@H](C4)C3=O)c(C)s2)cc1 (some centres unmarked) [Compound T58] | 0 | 60 | 60 | 60 | 100 | 0 | 80 | 100 | 90 | 100
5 | CCc1sc(COc2ccc(Cl)cc2)nc1C1C(=O)[C@@H]2CC[C@@H](C2)C1=O (some centres unmarked) [Compound T41] | 0 | 0 | 40 | 80 | 100 | 0 | 70 | 100 | 100 | 100
6 | Cc1cc(Cl)ncc1-c1nc(C2C(=O)[C@@H]3CC[C@@H](C3)C2=O)c(C)s1 (some centres unmarked) [Compound T75] | 0 | 20 | 90 | 0 | 40 | 0 | 0 | 90 | 20 | 70
7 | Cc1sc(-c2ccc(Cl)s2)nc1C1C(=O)[C@@H]2CC[C@@H](C2)C1=O (some centres unmarked) [Compound T34] | 0 | 0 | 20 | 20 | 20 | 0 | 0 | 90 | 70 | 80
8 | Cc1sc(-c2ccc3ccccc3c2)nc1C1C(=O)[C@@H]2CC[C@@H](C2)C1=O (some centres unmarked) [Compound T63] | 0 | 90 | 90 | 90 | 100 | 0 | 70 | 100 | 60 | 100
